Data reported in US11807835B2, “Detergent compositions containing a stabilized enzyme by phosphonates” (ECOLAB USA INC., priority 2016, dated 2023).
Where two headings read alike, the source gives them in different places.

Assays:
amylase = experiment: Amylase activity retention in detergent use solution (4000 ppm, 5 GPG water; ethylidene substrate EPS, HEPES buffer pH 8.0); assay type: biochemical
Protocol: (§1) The enzyme activities in the detergents with different phosphonate levels were tested at 4000 ppm in 5 grains per gallon (GPG) water at 120° F. with various time points collected up to 4 hours, after a use solution was generated from the detergent composition. During the tests, the samples at different time points were collected and immediately frozen in an acetone/dry ice bath and stored in −80° C. before the activity of the enzyme was evaluated. For the use of such an assay, t=0 min was the reference point for 100% enzyme activity.
(§2) Assays of enzyme activity in formulations (% retention) were conducted to simulate a presoak condition in a beaker using the chemistry, temperature, and pH conditions relevant to manual warewash or presoak applications. Enzyme activity is an indicator of the stability of the enzyme in the detergent, specifically in an aqueous use solution within a sump (which is under conditions of high pH, temperature and dilution).
Enzyme activity under presoak or manual warewash conditions was traced quantitatively using a standard protease assay. Samples were prepared under bench top conditions, whereby the use solution from a detergent composition or detergent was obtained and maintained at a presoak or manual warewash temperature in a stirring water bath. After the time course for assessing enzyme stability is initiated, aliquots were taken at various time points and flash-frozen. A time=0 sample was prepared for each series by dissolving the detergent formulation at room temperature, mixing thoroughly, and flash freezing. Samples were thawed and diluted as necessary in an assay buffer usually for use in the protease assay. A glycine buffer at pH 9.0 is used here. The assay monitored the direct reaction of the protease on a small, commercially available peptidyl substrate, with liberation of the product providing correlation to the active enzyme content. The product was detected using a plate reader with an appreciable dynamic range (upper absorbance limit of the instrument >3.5). Enzyme activity levels were assessed relative to a calibration curve with average values for replicate tests used to map protease stability under presoak or manual warewash use conditions. Enzyme retention at each time point was calculated as the % enzyme activity relative to the time=0 sample.
The analysis by lipase and amylase assay was conducted similarly, except with a different substrate and buffers. For lipase activity, the substrate is p-nitrophenyl valerate, and for amylase, the substrate is an ethylidene substrate (EPS). The buffer used in lipase assay is TRIS (Tris(hydroxymethyl)aminomethane) buffer at pH 8.0, and in amylase assay HEPES (4-(2-hydroxyethyl)-1-piperazineethanesulfonic acid) buffer at pH 8.0.

[1] = system: enzyme (protease, amylase, lipase); experiment: Overall effects of phosphonates on enzyme activity (Table 3); assay type: biochemical
Protocol: as §1, §2
The relative enzyme activities in a use solution of the tested detergent compositions containing a different phosphonate at different concentrations over a period time are listed in Table 4A-Table 4E, Table 5A-Table 5E, and Table 6A-Table 6F.

[2] = base formula, phosphonate 0.3 wt-%, use solution at 120° F., time 0 min
[3] = base formula, phosphonate 0.3 wt-%, use solution at 120° F., time 5 min
[4] = base formula, phosphonate 0.3 wt-%, use solution at 120° F., time 10 min
[5] = base formula, phosphonate 0.3 wt-%, use solution at 120° F., time 20 min
[6] = base formula, phosphonate 0.3 wt-%, use solution at 120° F., time 40 min
[7] = base formula, phosphonate 0.3 wt-%, use solution at 120° F., time 60 min
[8] = base formula, phosphonate 0.3 wt-%, use solution at 120° F., time 90 min
[9] = base formula, phosphonate 0.3 wt-%, use solution at 120° F., time 120 min
[10] = base formula, phosphonate 0.3 wt-%, use solution at 120° F., time 150 min
[11] = base formula, phosphonate 0.3 wt-%, use solution at 120° F., time 180 min
[12] = base formula, phosphonate 0.3 wt-%, use solution at 120° F., time 210 min
[13] = base formula, phosphonate 0.3 wt-%, use solution at 120° F., time 240 min
[14] = base formula, phosphonate 0.6 wt-%, use solution at 120º F., time 0 min
[15] = base formula, phosphonate 0.6 wt-%, use solution at 120º F., time 5 min
[16] = base formula, phosphonate 0.6 wt-%, use solution at 120º F., time 10 min
[17] = base formula, phosphonate 0.6 wt-%, use solution at 120º F., time 20 min
[18] = base formula, phosphonate 0.6 wt-%, use solution at 120º F., time 40 min
[19] = base formula, phosphonate 0.6 wt-%, use solution at 120º F., time 60 min
[20] = base formula, phosphonate 0.6 wt-%, use solution at 120º F., time 90 min
[21] = base formula, phosphonate 0.6 wt-%, use solution at 120º F., time 120 min
[22] = base formula, phosphonate 0.6 wt-%, use solution at 120º F., time 150 min
[23] = base formula, phosphonate 0.6 wt-%, use solution at 120º F., time 180 min
[24] = base formula, phosphonate 0.6 wt-%, use solution at 120º F., time 210 min
[25] = base formula, phosphonate 0.6 wt-%, use solution at 120º F., time 240 min
[26] = base formula, phosphonate at 0.1% elemental phosphorus level, use solution at 120º F., time 0 min
[27] = base formula, phosphonate at 0.1% elemental phosphorus level, use solution at 120º F., time 5 min
[28] = base formula, phosphonate at 0.1% elemental phosphorus level, use solution at 120º F., time 10 min
[29] = base formula, phosphonate at 0.1% elemental phosphorus level, use solution at 120º F., time 40 min
[30] = base formula, phosphonate at 0.1% elemental phosphorus level, use solution at 120º F., time 60 min
[31] = base formula, phosphonate at 0.1% elemental phosphorus level, use solution at 120º F., time 90 min
[32] = base formula, phosphonate at 0.1% elemental phosphorus level, use solution at 120º F., time 120 min
[33] = base formula, phosphonate at 0.1% elemental phosphorus level, use solution at 120º F., time 150 min
[34] = base formula, phosphonate at 0.1% elemental phosphorus level, use solution at 120º F., time 180 min
[35] = base formula, phosphonate at 0.1% elemental phosphorus level, use solution at 120º F., time 210 min
[36] = base formula, phosphonate at 0.1% elemental phosphorus level, use solution at 120º F., time 240 min

Diglycolamine phosphonate [DGAP]
Relative Amylase Enzyme Activity (amylase; All Ash formula, phosphonate 0.3 wt-%, use solution at 120° F., time 0 min): 100.00% | Relative Amylase Enzyme Activity (amylase; All Ash formula, phosphonate 0.3 wt-%, use solution at 120° F., time 5 min): 89.94% | Relative Amylase Enzyme Activity (amylase; All Ash formula, phosphonate 0.3 wt-%, use solution at 120° F., time 10 min): 87.50% | Relative Amylase Enzyme Activity (amylase; All Ash formula, phosphonate 0.3 wt-%, use solution at 120° F., time 20 min): 88.87% | Relative Amylase Enzyme Activity (amylase; All Ash formula, phosphonate 0.3 wt-%, use solution at 120° F., time 40 min): 86.87% | Relative Amylase Enzyme Activity (amylase; All Ash formula, phosphonate 0.3 wt-%, use solution at 120° F., time 60 min): 82.06% | Relative Amylase Enzyme Activity (amylase; All Ash formula, phosphonate 0.3 wt-%, use solution at 120° F., time 90 min): 81.79% | Relative Amylase Enzyme Activity (amylase; All Ash formula, phosphonate 0.3 wt-%, use solution at 120° F., time 120 min): 75.74% | Relative Amylase Enzyme Activity (amylase; All Ash formula, phosphonate 0.3 wt-%, use solution at 120° F., time 150 min): 79.71% | Relative Amylase Enzyme Activity (amylase; All Ash formula, phosphonate 0.3 wt-%, use solution at 120° F., time 180 min): 65.75% | Relative Amylase Enzyme Activity (amylase; All Ash formula, phosphonate 0.3 wt-%, use solution at 120° F., time 210 min): 71.27% | Relative Amylase Enzyme Activity (amylase; All Ash formula, phosphonate 0.3 wt-%, use solution at 120° F., time 240 min): 70.12% | amylase stability in all ash formula (amylase; all ash formula, versus same composition with PBTC or HEDP without amine(s), FIG. 4D): more stable | Relative Amylase Enzyme Activity (amylase; [2]): 39.01% | Relative Amylase Enzyme Activity (amylase; [3]): 100.00% | Relative Amylase Enzyme Activity (amylase; [4]): 113.48% | Relative Amylase Enzyme Activity (amylase; [5]): 112.07% | Relative Amylase Enzyme Activity (amylase; [6]): 110.36% | Relative Amylase Enzyme Activity (amylase; [7]): 109.99% | Relative Amylase Enzyme Activity (amylase; [8]): 118.04% | Relative Amylase Enzyme Activity (amylase; [9]): 110.39% | Relative Amylase Enzyme Activity (amylase; [10]): 111.92% | Relative Amylase Enzyme Activity (amylase; [11]): 112.24% | Relative Amylase Enzyme Activity (amylase; [12]): 115.96% | Relative Amylase Enzyme Activity (amylase; [13]): 110.74% | Relative Amylase Enzyme Activity (amylase; [14]): 100.00% | Relative Amylase Enzyme Activity (amylase; [15]): 102.43% | Relative Amylase Enzyme Activity (amylase; [16]): 95.89% | Relative Amylase Enzyme Activity (amylase; [17]): 99.40% | Relative Amylase Enzyme Activity (amylase; [18]): 97.26% | Relative Amylase Enzyme Activity (amylase; [19]): 100.23% | Relative Amylase Enzyme Activity (amylase; [20]): 95.37% | Relative Amylase Enzyme Activity (amylase; [21]): 102.17% | Relative Amylase Enzyme Activity (amylase; [22]): 102.37% | Relative Amylase Enzyme Activity (amylase; [23]): 101.89% | Relative Amylase Enzyme Activity (amylase; [24]): 102.69% | Relative Amylase Enzyme Activity (amylase; [25]): 105.89% | Relative Amylase Enzyme Activity (amylase; [26]): 100.00% | Relative Amylase Enzyme Activity (amylase; [27]): 98.51% | Relative Amylase Enzyme Activity (amylase; [28]): 108.49% | Relative Amylase Enzyme Activity (amylase; [29]): 97.68% | Relative Amylase Enzyme Activity (amylase; [30]): 97.62% | Relative Amylase Enzyme Activity (amylase; [31]): 99.36% | Relative Amylase Enzyme Activity (amylase; [32]): 92.67% | Relative Amylase Enzyme Activity (amylase; [33]): 98.24% | Relative Amylase Enzyme Activity (amylase; [34]): 93.89% | Relative Amylase Enzyme Activity (amylase; [35]): 107.33% | Relative Amylase Enzyme Activity (amylase; [36]): 103.75% | Stability (effects on enzyme activity) ([1]; overall effect of the phosphonate on enzyme activity in the detergent use solution): Yes

Monoethanolamine phosphonate [MEAP]
Relative Amylase Enzyme Activity (amylase; [2]): 100.00% | Relative Amylase Enzyme Activity (amylase; [3]): 100.65% | Relative Amylase Enzyme Activity (amylase; [4]): 102.68% | Relative Amylase Enzyme Activity (amylase; [5]): 102.07% | Relative Amylase Enzyme Activity (amylase; [6]): 91.36% | Relative Amylase Enzyme Activity (amylase; [7]): 93.57% | Relative Amylase Enzyme Activity (amylase; [8]): 94.85% | Relative Amylase Enzyme Activity (amylase; [9]): 102.84% | Relative Amylase Enzyme Activity (amylase; [10]): 93.01% | Relative Amylase Enzyme Activity (amylase; [11]): 96.46% | Relative Amylase Enzyme Activity (amylase; [12]): 100.65% | Relative Amylase Enzyme Activity (amylase; [13]): 103.40% | Relative Amylase Enzyme Activity (amylase; [14]): 100.00% | Relative Amylase Enzyme Activity (amylase; [15]): 95.91% | Relative Amylase Enzyme Activity (amylase; [16]): 99.98% | Relative Amylase Enzyme Activity (amylase; [17]): 90.83% | Relative Amylase Enzyme Activity (amylase; [18]): 91.75% | Relative Amylase Enzyme Activity (amylase; [19]): 97.99% | Relative Amylase Enzyme Activity (amylase; [20]): 99.08% | Relative Amylase Enzyme Activity (amylase; [21]): 97.36% | Relative Amylase Enzyme Activity (amylase; [22]): 101.28% | Relative Amylase Enzyme Activity (amylase; [23]): 94.70% | Relative Amylase Enzyme Activity (amylase; [24]): 99.20% | Relative Amylase Enzyme Activity (amylase; [25]): 99.15% | Relative Amylase Enzyme Activity (amylase; [26]): 100.00% | Relative Amylase Enzyme Activity (amylase; [27]): 95.47% | Relative Amylase Enzyme Activity (amylase; [28]): 112.93% | Relative Amylase Enzyme Activity (amylase; base formula, phosphonate at 0.1% elemental phosphorus level, use solution at 120º F., time 20 min): 117.67% | Relative Amylase Enzyme Activity (amylase; [29]): 122.41% | Relative Amylase Enzyme Activity (amylase; [30]): 125.44% | Relative Amylase Enzyme Activity (amylase; [31]): 127.99% | Relative Amylase Enzyme Activity (amylase; [32]): 123.91% | Relative Amylase Enzyme Activity (amylase; [33]): 120.88% | Relative Amylase Enzyme Activity (amylase; [34]): 113.29% | Relative Amylase Enzyme Activity (amylase; [35]): 112.78% | Relative Amylase Enzyme Activity (amylase; [36]): 118.72% | Stability (effects on enzyme activity) [1]: Yes
